Reference: PubChem BioAssay AID2060511 (Molecular Pharmacology Branch, DTP, NCI, 2025)

System: 422866-222-R5-J1-PDC spheroids with HUVEC/MSC, viability
Assay: Anticancer human tumor 422866-222-R5-J1-PDC patient-derived pancreatic adenocarcinoma cell line growth inhibition [GQUAD]
Settings: for IC50: curve of first compound; for viability, T/C: stronger effect = lower value
From the text: DNA G-quadruplex Stabilizer Agents in Combinations in Complex Spheroids
A high-throughput screen of multi-cell type tumor spheroids was designed to identify active combinations of DNA G-quadruplex stabilizer agents and targeted small molecules. Complex spheroids include a stromal component modeled by human endothelial cells (HUVEC) and fibroblasts modeled by human mesenchymal stem cells (MSCs). The concentration ranges selected for each drug and investigational agent were based upon clinically achievable concentrations if the clinical Cmax of the agent was known.
Compounds. The drugs and investigational agents: pidnarulex (CX-5461; NSC782164), APTO-253 (NSC789042), BRACO-19 (NSC847499), peposertib (NSC802822), ceralasertib (NSC780249), elimusertib (NSC800525), camonsertib (NSC841442), AZD-1390 (NSC803789), olaparib (NSC753686), talazoparib (NSC767125), ART-558 (NSC835418), sotorasib (NSC818433), MRTX-1133 (NSC836407), SN-38 (NSC673596), topotecan (NSC609699), etoposide (NSC141540), doxorubicin (NSC123127), gemcitabine (NSC613327), 5-fluorouracil (NSC19893), paclitaxel (NSC125973), vemurafenib (NSC761431), panobinostat (NSC761190), R-306465 (JNJ-16241199; NSC773264), adavosertib (NSC754352), TP-3654 (NSC805149), carboplatin (NSC241240), KSQ-4279 (NSC840948), and staurosporine (NSC755774) were obtained from the National Cancer Institute (NCI) Developmental Therapeutics Program Chemical Repository (34). The FDA-approved anticancer drug set is available from the NCI Developmental Therapeutics Program. […] The stock solutions were prepared in dimethyl sulfoxide (DMSO, Sigma-Aldrich, St. Louis, MO, cat. D2650) at 800-fold the tested concentration and stored at -70 degrees C prior to their use. All drugs and investigational agents were tested over a range starting from a high concentration at or near the clinical Cmax and decreasing in half-log increments. If the clinical Cmax for an agent had not been determined, the highest concentration tested was 10 microM.
2.3 Cell Culture. All cells were maintained in an incubator at 37 degrees C and 5% CO2 with 95% humidity. The PDC lines were cultured according to standard operating procedures established by the NCI PDMR. All PDCs were thawed and cultured in Matrigel-coated flasks prepared with a working solution of 1X Ham's F-12 nutrient mix, without supplementation (Invitrogen, cat. 11765054), 100 U/mL penicillin-streptomycin (Invitrogen, cat. 15140122), and 2.5% Matrigel (Corning Inc., cat. 354248) for the first three passages. The 857933-349-R-J2-PDC line was cultured in 6C/Colon 1B media, which includes advanced DMEM/F-12 (Thermo Fisher Scientific, cat. 12634028), 10 mM HEPES (Thermo Fisher Scientific, cat. 15630080), 1X GlutaMAX supplement (Thermo Fisher Scientific, cat. 35050061), 0.1 mg/mL primocin (InvivoGen, cat. ant-pm-2), 10% defined fetal bovine serum, heat inactivated (HyClone Laboratories Inc., cat. SH30070.03HI), 50% L-WRN conditioned media (ATCC, cat. CRL-3276), 1.25 mM N-Acetyl-L-cysteine (Sigma-Aldrich, cat. A9165), 10 mM nicotinamide (Sigma-Aldrich, cat. N0636), 1X B-27 supplement (Thermo Fisher Scientific, cat. 17504044), 1X N-2 supplement (Thermo Fisher Scientific, cat. 17502048), 10 microM Y-27632 dihydrochloride (Tocris Bioscience, cat. 1254), and 50 ng/mL human EGF recombinant protein (Thermo Fisher Scientific, cat. PHG0311). The 485176-168-R4-J1-PDC line was cultured in Panc media, which includes all 6C/Colon 1B media components plus 100 ng/mL human FGF-10 (Thermo Fisher Scientific, cat. 100-26), 500 nM SB-431542 (Selleckchem, cat. S1067), and gastrin (Tocris, cat. 3006).
[…]

[1] = second compound 0.0316 µM, first compound 0.0316 µM
[2] = second compound 0.0316 µM, first compound 0.316 µM
[3] = second compound 0.1 µM, first compound 0.0316 µM
[4] = second compound 0.1 µM, first compound 0.316 µM
[5] = second compound 0.316 µM, first compound 0.0316 µM
[6] = second compound 0.316 µM, first compound 0.316 µM
[7] = second compound 1 µM, first compound 0.0316 µM
[8] = second compound 1 µM, first compound 0.316 µM
[9] = second compound 3.16 µM, first compound 0.0316 µM
[10] = second compound 3.16 µM, first compound 0.316 µM
[11] = second compound 10 µM, first compound 0.0316 µM
[12] = second compound 10 µM, first compound 0.316 µM
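Also: spheroids exposed to compounds for seven days before reading.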
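For viability, T/C in this document: percent viability relative to DMSO vehicle control taken as 100%.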

COc1ncnc(C2CC2)c1-c1ncc2cnn(Cc3ccc(-c4nc(C(F)(F)F)cn4C(C)C)cc3)c2n1 + CN(C)c1ccc(Nc2c3ccc(NC(=O)CCN4CCCC4)cc3nc3cc(NC(=O)CCN4CCCC4)ccc23)cc1
IC50 (second compound 0.0316 µM): > 10 µM
IC50 (second compound 0.1 µM): > 10 µM
IC50 (second compound 0.316 µM): > 10 µM
IC50 (second compound 1 µM): > 10 µM
IC50 (second compound 3.16 µM): > 10 µM
IC50 (second compound 10 µM): > 10 µM
viability, T/C [1]: 92.7%
viability, T/C (second compound 0.0316 µM, first compound 0.1 µM): 88.3%
viability, T/C [2]: 124%
viability, T/C (second compound 0.0316 µM, first compound 1 µM): 93%
viability, T/C (second compound 0.0316 µM, first compound 3.16 µM): 90%
viability, T/C (second compound 0.0316 µM, first compound 10 µM): 104%
viability, T/C [3]: 116%
viability, T/C (second compound 0.1 µM, first compound 0.1 µM): 104%
viability, T/C [4]: 109%
viability, T/C (second compound 0.1 µM, first compound 1 µM): 94.9%
viability, T/C (second compound 0.1 µM, first compound 3.16 µM): 100%
viability, T/C (second compound 0.1 µM, first compound 10 µM): 100%
viability, T/C [5]: 104%
viability, T/C (second compound 0.316 µM, first compound 0.1 µM): 89.8%
viability, T/C [6]: 100%
viability, T/C (second compound 0.316 µM, first compound 1 µM): 94.3%
viability, T/C (second compound 0.316 µM, first compound 3.16 µM): 106%
viability, T/C (second compound 0.316 µM, first compound 10 µM): 100%
viability, T/C [7]: 90.7%
viability, T/C (second compound 1 µM, first compound 0.1 µM): 92.2%
viability, T/C [8]: 101%
viability, T/C (second compound 1 µM, first compound 1 µM): 90.9%
viability, T/C (second compound 1 µM, first compound 3.16 µM): 97.1%
viability, T/C (second compound 1 µM, first compound 10 µM): 84.5%
viability, T/C [9]: 85.8%
viability, T/C (second compound 3.16 µM, first compound 0.1 µM): 102%
viability, T/C [10]: 101%
viability, T/C (second compound 3.16 µM, first compound 1 µM): 92.9%
viability, T/C (second compound 3.16 µM, first compound 3.16 µM): 103%
viability, T/C (second compound 3.16 µM, first compound 10 µM): 69.9%
viability, T/C [11]: 98.6%
viability, T/C (second compound 10 µM, first compound 0.1 µM): 109%
viability, T/C [12]: 104%
viability, T/C (second compound 10 µM, first compound 1 µM): 69.3%
viability, T/C (second compound 10 µM, first compound 3.16 µM): 86.8%
viability, T/C (second compound 10 µM, first compound 10 µM): 58%

Cc1[nH]c2ccccc2c1CCNCc1ccc(/C=C/C(=O)NO)cc1 + CN(C)c1ccc(Nc2c3ccc(NC(=O)CCN4CCCC4)cc3nc3cc(NC(=O)CCN4CCCC4)ccc23)cc1
IC50 (second compound 0.0316 µM): > 0.316 µM
IC50 (second compound 0.1 µM): > 0.316 µM
IC50 (second compound 0.316 µM): > 0.316 µM
IC50 (second compound 1 µM): > 0.316 µM
IC50 (second compound 3.16 µM): > 0.316 µM
IC50 (second compound 10 µM): > 0.316 µM
viability, T/C (second compound 0.0316 µM, first compound 0.000999 µM): 118%
viability, T/C (second compound 0.0316 µM, first compound 0.00316 µM): 98.7%
viability, T/C (second compound 0.0316 µM, first compound 0.00999 µM): 116%
viability, T/C [1]: 83.2%
viability, T/C (second compound 0.0316 µM, first compound 0.0999 µM): 54.3%
viability, T/C [2]: 56.8%
viability, T/C (second compound 0.1 µM, first compound 0.000999 µM): 98.3%
viability, T/C (second compound 0.1 µM, first compound 0.00316 µM): 102%
viability, T/C (second compound 0.1 µM, first compound 0.00999 µM): 119%
viability, T/C [3]: 89.9%
viability, T/C (second compound 0.1 µM, first compound 0.0999 µM): 73.5%
viability, T/C [4]: 61.5%
viability, T/C (second compound 0.316 µM, first compound 0.000999 µM): 105%
viability, T/C (second compound 0.316 µM, first compound 0.00316 µM): 102%
viability, T/C (second compound 0.316 µM, first compound 0.00999 µM): 98.7%
viability, T/C [5]: 76%
viability, T/C (second compound 0.316 µM, first compound 0.0999 µM): 69.4%
viability, T/C [6]: 57%
viability, T/C (second compound 1 µM, first compound 0.000999 µM): 77.3%
viability, T/C (second compound 1 µM, first compound 0.00316 µM): 91.9%
viability, T/C (second compound 1 µM, first compound 0.00999 µM): 131%
viability, T/C [7]: 112%
viability, T/C (second compound 1 µM, first compound 0.0999 µM): 63.3%
viability, T/C [8]: 52%
viability, T/C (second compound 3.16 µM, first compound 0.000999 µM): 89.5%
viability, T/C (second compound 3.16 µM, first compound 0.00316 µM): 97.3%
viability, T/C (second compound 3.16 µM, first compound 0.00999 µM): 102%
viability, T/C [9]: 103%
viability, T/C (second compound 3.16 µM, first compound 0.0999 µM): 80.4%
viability, T/C [10]: 56.4%
viability, T/C (second compound 10 µM, first compound 0.000999 µM): 96%
viability, T/C (second compound 10 µM, first compound 0.00316 µM): 95.4%
viability, T/C (second compound 10 µM, first compound 0.00999 µM): 98.8%
viability, T/C [11]: 109%
viability, T/C (second compound 10 µM, first compound 0.0999 µM): 75.2%
viability, T/C [12]: 53.7%
